The supplement of paper PMC11562712

Test: first-order primary biodegradation rate constant k (sorption-corrected, fDis-corrected) (d-1); higher = faster biodegradation
Method in brief: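 Each of 129 compounds was spiked at 1 μg L^–1 into river water containing sieved sediment (50 g wet solid L^–1) from German, Swiss, Spanish and Greek river segments, then shaken in darkness at 20.5 ± 3.5 °C, the river water temperature, for 10 days in three replicates. Filtered samples of the water phase were measured by ultra-high-performance liquid chromatography coupled to Orbitrap tandem mass spectrometry. First-order k values came from log peak-area regression, corrected for sorption-control dissipation under azide sterilisation and divided by dissolved fraction, and invalid fits were left out.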

[1] = river segment: Germany (DE) H_Contam, incubation temperature 24 °C
[2] = river segment: Germany (DE) T_Pris, incubation temperature 24 °C
[3] = river segment: Greece (EL) G_Contam, incubation temperature 19 °C
[4] = river segment: Greece (EL) G_Pris, incubation temperature 19 °C
[5] = river segment: Spain (ES) B_Contam, incubation temperature 24 °C
[6] = river segment: Spain (ES) C_Contam, incubation temperature 24 °C
[7] = river segment: Spain (ES) F_Pris_Salt, incubation temperature 24 °C
[8] = river segment: Spain (ES) L_Contam, incubation temperature 24 °C
[9] = river segment: Switzerland (CH) C_Contam, incubation temperature 17 °C
[10] = river segment: Switzerland (CH) R_Contam, incubation temperature 17 °C
[11] = river segment: Switzerland (CH) U_Contam, incubation temperature 17 °C
[12] = river segment: Switzerland (CH) U_Pris, incubation temperature 17 °C
[13] = river segment: Germany (DE) T_Contam, incubation temperature 24 °C
[14] = river segment: Greece (EL) A_Contam, incubation temperature 19 °C
[15] = river segment: Greece (EL) L_Contam, incubation temperature 19 °C

CC(C)NCC(O)COc1cccc2ccccc12 (stereo not given) [Propranolol]
first-order primary biodegradation rate constant k [1]: 0.231 | first-order primary biodegradation rate constant k [2]: 0.118 | first-order primary biodegradation rate constant k [3]: 0.0886 | first-order primary biodegradation rate constant k [4]: 0.0227 | first-order primary biodegradation rate constant k [5]: 0.309 | first-order primary biodegradation rate constant k [6]: 0.539 | first-order primary biodegradation rate constant k [7]: 0.0162 | first-order primary biodegradation rate constant k [8]: 0.303 | first-order primary biodegradation rate constant k [9]: 0.0688 | first-order primary biodegradation rate constant k [10]: 0.251 | first-order primary biodegradation rate constant k [11]: 0.246 | first-order primary biodegradation rate constant k [12]: 0.29

C/C(=N\C#N)N(C)Cc1ccc(Cl)nc1 [Acetamiprid]
first-order primary biodegradation rate constant k [1]: 0.0195 | first-order primary biodegradation rate constant k [13]: 0.217 | first-order primary biodegradation rate constant k [2]: 0.0162 | first-order primary biodegradation rate constant k [14]: 0.097 | first-order primary biodegradation rate constant k [3]: 0.0201 | first-order primary biodegradation rate constant k [4]: 0.125 | first-order primary biodegradation rate constant k [15]: 0.0691 | first-order primary biodegradation rate constant k [6]: 0.00952 | first-order primary biodegradation rate constant k [8]: 0.0364 | first-order primary biodegradation rate constant k [9]: 0.031 | first-order primary biodegradation rate constant k [10]: 0.139 | first-order primary biodegradation rate constant k [11]: 0.106 | first-order primary biodegradation rate constant k [12]: 0.386

Nc1ccc(S(=O)(=O)Nc2nccs2)cc1 [Sulfathiazole]
first-order primary biodegradation rate constant k [1]: 0.0753 | first-order primary biodegradation rate constant k [2]: 0.259 | first-order primary biodegradation rate constant k [14]: 1.21 | first-order primary biodegradation rate constant k [3]: 1.63 | first-order primary biodegradation rate constant k [4]: 1.17 | first-order primary biodegradation rate constant k [15]: 0.81 | first-order primary biodegradation rate constant k [5]: 0.646 | first-order primary biodegradation rate constant k [6]: 0.00288 | first-order primary biodegradation rate constant k [7]: 0.0294 | first-order primary biodegradation rate constant k [8]: 1.5 | first-order primary biodegradation rate constant k [9]: 0.0717 | first-order primary biodegradation rate constant k [10]: 0.119 | first-order primary biodegradation rate constant k [12]: 0.0554

CCOC(=O)c1ccc(O)cc1 [Ethylparaben]
first-order primary biodegradation rate constant k [14]: 0.0419 | first-order primary biodegradation rate constant k [3]: 0.114 | first-order primary biodegradation rate constant k [15]: 0.108 | first-order primary biodegradation rate constant k [5]: 0.466 | first-order primary biodegradation rate constant k [6]: 2.12 | first-order primary biodegradation rate constant k [8]: 0.364 | first-order primary biodegradation rate constant k [11]: 0.0177

c1ccc2[nH]nnc2c1 [Benzotriazole]
first-order primary biodegradation rate constant k [1]: 0.0409 | first-order primary biodegradation rate constant k [13]: 0.0507 | first-order primary biodegradation rate constant k [2]: 0.00553 | first-order primary biodegradation rate constant k [14]: 0.316 | first-order primary biodegradation rate constant k [4]: 0.0923 | first-order primary biodegradation rate constant k [15]: 2.87 | first-order primary biodegradation rate constant k [5]: 0.0121 | first-order primary biodegradation rate constant k [6]: 0.00219 | first-order primary biodegradation rate constant k [8]: 0.208 | first-order primary biodegradation rate constant k [10]: 0.00612 | first-order primary biodegradation rate constant k [11]: 0.0122 | first-order primary biodegradation rate constant k [12]: 0.0264

CCCCC(=O)N(Cc1ccc(-c2ccccc2-c2nnn[nH]2)cc1)[C@H](C(=O)O)C(C)C [Valsartan]
first-order primary biodegradation rate constant k [1]: 0.469 | first-order primary biodegradation rate constant k [13]: 0.54 | first-order primary biodegradation rate constant k [2]: 0.204 | first-order primary biodegradation rate constant k [14]: 0.42 | first-order primary biodegradation rate constant k [3]: 0.418 | first-order primary biodegradation rate constant k [4]: 0.275 | first-order primary biodegradation rate constant k [6]: 0.194 | first-order primary biodegradation rate constant k [7]: 0.0324 | first-order primary biodegradation rate constant k [8]: 0.374 | first-order primary biodegradation rate constant k [9]: 0.186 | first-order primary biodegradation rate constant k [10]: 0.52 | first-order primary biodegradation rate constant k [11]: 0.556 | first-order primary biodegradation rate constant k [12]: 0.429

Cc1ccc(-c2nc3ccc(C)cn3c2CC(=O)N(C)C)cc1 [Zolpidem]
first-order primary biodegradation rate constant k [1]: 0.202 | first-order primary biodegradation rate constant k [13]: 0.672 | first-order primary biodegradation rate constant k [2]: 0.0723 | first-order primary biodegradation rate constant k [14]: 0.464 | first-order primary biodegradation rate constant k [4]: 0.19 | first-order primary biodegradation rate constant k [15]: 2.27 | first-order primary biodegradation rate constant k [5]: 0.709 | first-order primary biodegradation rate constant k [6]: 0.0357 | first-order primary biodegradation rate constant k [7]: 0.00549 | first-order primary biodegradation rate constant k [8]: 0.761 | first-order primary biodegradation rate constant k [9]: 0.0346 | first-order primary biodegradation rate constant k [10]: 0.0249 | first-order primary biodegradation rate constant k [11]: 0.0604 | first-order primary biodegradation rate constant k [12]: 0.135

COC(=O)Nc1nc2ccccc2[nH]1 [Carbendazim]
first-order primary biodegradation rate constant k [1]: 0.0157 | first-order primary biodegradation rate constant k [13]: 0.155 | first-order primary biodegradation rate constant k [2]: 0.00648 | first-order primary biodegradation rate constant k [14]: 0.1 | first-order primary biodegradation rate constant k [4]: 0.0594 | first-order primary biodegradation rate constant k [5]: 0.0208 | first-order primary biodegradation rate constant k [6]: 0.00806 | first-order primary biodegradation rate constant k [7]: 0.03 | first-order primary biodegradation rate constant k [8]: 0.0322 | first-order primary biodegradation rate constant k [11]: 0.0106 | first-order primary biodegradation rate constant k [12]: 0.0192

NS(=O)(=O)c1cc(C2(O)NC(=O)c3ccccc32)ccc1Cl (stereo not given) [Chlorthalidone]
first-order primary biodegradation rate constant k [1]: 0.0136 | first-order primary biodegradation rate constant k [13]: 0.0182

O=[N+]([O-])/N=C1\NCCN1Cc1ccc(Cl)nc1 [Imidacloprid]
first-order primary biodegradation rate constant k [1]: 0.029 | first-order primary biodegradation rate constant k [13]: 0.0495 | first-order primary biodegradation rate constant k [6]: 0.0128 | first-order primary biodegradation rate constant k [12]: 0.00932

Nc1nnc(-c2cccc(Cl)c2Cl)c(N)n1 [Lamotrigine]
first-order primary biodegradation rate constant k [13]: 0.0823 | first-order primary biodegradation rate constant k [3]: 0.337 | first-order primary biodegradation rate constant k [4]: 0.0465 | first-order primary biodegradation rate constant k [15]: 0.0519

C#CCN(C)Cc1ccccc1 [Pargyline]
first-order primary biodegradation rate constant k [1]: 0.16 | first-order primary biodegradation rate constant k [13]: 0.425 | first-order primary biodegradation rate constant k [2]: 0.199 | first-order primary biodegradation rate constant k [14]: 0.519 | first-order primary biodegradation rate constant k [3]: 0.773 | first-order primary biodegradation rate constant k [15]: 0.513 | first-order primary biodegradation rate constant k [5]: 0.0362 | first-order primary biodegradation rate constant k [6]: 0.113 | first-order primary biodegradation rate constant k [7]: 0.179 | first-order primary biodegradation rate constant k [9]: 0.22 | first-order primary biodegradation rate constant k [10]: 0.4 | first-order primary biodegradation rate constant k [11]: 0.596 | first-order primary biodegradation rate constant k [12]: 0.768

CC(C)(Oc1ccc(CCNC(=O)c2ccc(Cl)cc2)cc1)C(=O)O [Bezafibrate]
first-order primary biodegradation rate constant k [1]: 0.295 | first-order primary biodegradation rate constant k [13]: 0.469 | first-order primary biodegradation rate constant k [2]: 0.123 | first-order primary biodegradation rate constant k [14]: 0.408 | first-order primary biodegradation rate constant k [3]: 0.184 | first-order primary biodegradation rate constant k [4]: 0.438 | first-order primary biodegradation rate constant k [15]: 0.566 | first-order primary biodegradation rate constant k [5]: 1.03 | first-order primary biodegradation rate constant k [6]: 0.169 | first-order primary biodegradation rate constant k [7]: 0.0229 | first-order primary biodegradation rate constant k [8]: 0.263 | first-order primary biodegradation rate constant k [9]: 0.382 | first-order primary biodegradation rate constant k [10]: 0.411 | first-order primary biodegradation rate constant k [12]: 2.17

CC(C)(Oc1ccc(Cl)cc1)C(=O)O [Clofibric acid]
first-order primary biodegradation rate constant k [1]: 0.0901 | first-order primary biodegradation rate constant k [13]: 0.0769 | first-order primary biodegradation rate constant k [2]: 0.0208 | first-order primary biodegradation rate constant k [14]: 0.0823 | first-order primary biodegradation rate constant k [4]: 0.0358 | first-order primary biodegradation rate constant k [15]: 0.0249 | first-order primary biodegradation rate constant k [5]: 0.0306 | first-order primary biodegradation rate constant k [6]: 0.0243 | first-order primary biodegradation rate constant k [8]: 0.11 | first-order primary biodegradation rate constant k [9]: 0.0409 | first-order primary biodegradation rate constant k [10]: 0.0581 | first-order primary biodegradation rate constant k [11]: 0.034 | first-order primary biodegradation rate constant k [12]: 0.0607
